Legend:
[1] = Critical micelle concentration (CMC) of bile salts; type: physicochemical; conditions: approximate values; critical micellular concentration
From the text: In some embodiments, a bile acid or salt thereof of the disclosure is characterized by a critical micelle concentration (CMC). In some embodiments, the bile acid or salt thereof aggregates and/or forms micelles at a concentration above the CMC. […] In some embodiments, the method comprises potentiometry, spectrophotometry, nuclear magnetic resonance, viscosimetry, turbidimetry, microcalorimetry, refractometry, conductimetry, cholesterol solubilization, bilirubin monoglucuronide solubilization, dye solubilization, fluorescence, capillary electrophoresis, reverse phase HPLC, freezing point depression, surface tension, and/or light scattering. In some embodiments, the CMC value is an average of at least 3-50 replicates measured by a single technique (e.g., 3-50 replicates measured by potentiometry, 3-50 replicates measured by spectrophotometry, or 3-50 replicates measured by light scattering). In some embodiments, the CMC value is an average of replicates measured by more than one technique, wherein at least 3, 4, 5, 6, 7, 8, 9, or 10 replicates are measured per technique (e.g., an average of (i) at least 3, 4, 5, 6, 7, 8, 9, or 10 replicates measured by potentiometry, (ii) at least 3, 4, 5, 6, 7, 8, 9, or 10 replicates measured by spectrophotometry, (iii) at least 3, 4, 5, 6, 7, 8, 9, or 10 replicates measured by light scattering, (iv) replicates from any pair-wise combination of (i)-(iii), or (v) replicates from a combination of (i)-(iii)).
The bile acids tested in the formulations are identified in Table 2. The bile acids selected for testing vary in the number of hydroxyl groups, stereochemistry of hydroxyl groups, and conjugation at terminal acid.

[2] = system: porcine ex vivo intestinal tissue; assay: GI-ORIS ex vivo intestinal permeation assay
Protocol: (§1) A custom device confines larger tissue explants into individual compartments with donor and receiver chambers that face the apical and basolateral faces of the intestinal tissue, respectively. Porcine tissue was dissected as previously described from freshly harvested gastrointestinal tracts and jejunal segments were stored in calcium-free Krebs buffer at 4° C. for 16 hours prior to mounting between the receiver and donor compartments of a GI-ORIS device. Receiver compartments were filled with 150 μL of either 5% Bovine Serum Albumin (for Vancomycin) or 0.1% Ovalbumin (for Calcitonin, Insulin, Semaglutide) solutions prior to tissue mounting. […]
(§2) Vancomycin in receiver fluid samples was detected using LC-TOF. […] Quantification was performed relative to standard curves prepared in receiver fluid with no exposure to peptide.
(§3) Semaglutide in receiver fluid samples was detected using LC-QQQ. […] Quantification was performed relative to standard curves prepared in receiver fluid with no exposure to peptide.
(§4) Calcitonin and Insulin in receiver fluid samples (following a 1000× dilution in PBS) were detected using established protocols of commercial sandwich ELISA kits (Abcam, Waltham, MA, and Thermo Fisher Scientific, Waltham, MA). TMB chromogen absorbance was converted to peptide concentration relative to a standard curve prepared using provided standards in ELISA buffer. […]

[3] = system: porcine ex vivo intestinal tissue
Protocol: as §1, §2, §3, §4

Compound	CMC [1] [mM]	CMC (mg/mL) [1]	lowest concentration for which a maximal effect on vancomycin permeability was observed [2] [mg/mL]	enhancement in intestinal permeability of the peptides [3]
C[C@H](CCC(=O)[O-])[C@H]1CC[C@H]2[C@@H]3CC[C@@H]4C[C@H](O)CC[C@]4(C)[C@H]3C[C@H](O)[C@]12C.[Na+] [DCA, sodium deoxycholate]	5	2.0 mg/ ml mg/mL		
C[C@H](CCC(=O)NCC(=O)[O-])[C@H]1CC[C@H]2[C@@H]3CC[C@@H]4C[C@H](O)CC[C@]4(C)[C@H]3C[C@H](O)[C@]12C.[Na+] [GDCA, sodium glycodeoxycholate]	2	0.9 mg/ mL mg/mL		
C[C@H](CCC(=O)NCC(=O)[O-])[C@H]1CC[C@H]2[C@@H]3[C@H](O)C[C@@H]4C[C@H](O)CC[C@]4(C)[C@H]3C[C@H](O)[C@]12C.[Na+] [GCA, sodium glycocholate]	11	5.4 mg/ mL mg/mL	128	
C[C@H](CCC(=O)[O-])[C@H]1CC[C@H]2[C@@H]3[C@H](O)C[C@@H]4C[C@H](O)CC[C@]4(C)[C@H]3C[C@H](O)[C@]12C.[Na+] [CHA, sodium cholate]	11	4.5 mg/ mL mg/mL		
C[C@H](CCC(=O)NCCS(=O)(=O)[O-])[C@H]1CC[C@H]2[C@@H]3[C@H](O)C[C@@H]4C[C@H](O)CC[C@]4(C)[C@H]3CC[C@]12C.[Na+] [TCDCA, sodium taurochenodeoxycholate]	4	2.1 mg/ mL mg/mL		
C[C@H](CCC(=O)NCC(=O)[O-])[C@H]1CC[C@H]2[C@@H]3[C@H](O)C[C@@H]4C[C@H](O)CC[C@]4(C)[C@H]3CC[C@]12C.[Na+] [GCDCA, sodium glycochenodeoxycholate]	2	0.9 mg/ mL mg/mL		
C[C@H](CCC(=O)NCCS(=O)(=O)[O-])[C@H]1CC[C@H]2[C@@H]3CC[C@@H]4C[C@H](O)CC[C@]4(C)[C@H]3C[C@H](O)[C@]12C.[Na+] [TDCA, sodium taurodeoxycholate]	3	1.6 mg/ mL mg/mL		
C[C@H](CCC(=O)[O-])[C@H]1CC[C@H]2[C@@H]3[C@H](O)C[C@@H]4C[C@H](O)CC[C@]4(C)[C@H]3CC[C@]12C.[Na+] [CDCA, sodium chenodeoxycholate]	4	1.6 mg/ mL mg/mL		
C[C@H](CCC(=O)NCCS(=O)(=O)[O-])[C@H]1CC[C@H]2[C@@H]3[C@H](O)C[C@@H]4C[C@H](O)CC[C@]4(C)[C@H]3C[C@H](O)[C@]12C.[Na+] [STC, sodium taurocholate]	6	3.2 mg/ ml mg/mL		greatest enhancement in intestinal permeability
